pKi: −log10 of the molar value.
Assays:
Rho kinase 1 = Rho kinase 1 (Homo sapiens, UniProt Q13464); experiment: In vitro Rho kinase inhibitory activity assay (ADP-Glo kit, Myelin Basic Protein substrate); assay type: biochemical; conditions: 10 μM ATP, 25° C., read-out: ROCK1 inhibitory activity (Ki, range of activity)
In short: (§1)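 ADP-Glo luminescence assay at 25 °C in 40 mM Tris pH 7.5, 20 mM MgCl2, 0.1 mg/ml BSA, 50 μM DTT, with 2.5 μM myelin basic protein, 10 μM ATP and 1% DMSO. Compound and ROCK1 or ROCK2 were preincubated 30 min, then reacted 1 h. IC50 came from a sigmoidal fit; Ki via Cheng-Prusoff.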

Rho kinase 2 = Rho kinase 2 (Homo sapiens, UniProt O75116); experiment: as above; assay type: biochemical; conditions: 10 μM ATP, 25° C., read-out: ROCK2 inhibitory activity (Ki, range of activity)
Chain of Rho kinase 2 (O75116 whole entry): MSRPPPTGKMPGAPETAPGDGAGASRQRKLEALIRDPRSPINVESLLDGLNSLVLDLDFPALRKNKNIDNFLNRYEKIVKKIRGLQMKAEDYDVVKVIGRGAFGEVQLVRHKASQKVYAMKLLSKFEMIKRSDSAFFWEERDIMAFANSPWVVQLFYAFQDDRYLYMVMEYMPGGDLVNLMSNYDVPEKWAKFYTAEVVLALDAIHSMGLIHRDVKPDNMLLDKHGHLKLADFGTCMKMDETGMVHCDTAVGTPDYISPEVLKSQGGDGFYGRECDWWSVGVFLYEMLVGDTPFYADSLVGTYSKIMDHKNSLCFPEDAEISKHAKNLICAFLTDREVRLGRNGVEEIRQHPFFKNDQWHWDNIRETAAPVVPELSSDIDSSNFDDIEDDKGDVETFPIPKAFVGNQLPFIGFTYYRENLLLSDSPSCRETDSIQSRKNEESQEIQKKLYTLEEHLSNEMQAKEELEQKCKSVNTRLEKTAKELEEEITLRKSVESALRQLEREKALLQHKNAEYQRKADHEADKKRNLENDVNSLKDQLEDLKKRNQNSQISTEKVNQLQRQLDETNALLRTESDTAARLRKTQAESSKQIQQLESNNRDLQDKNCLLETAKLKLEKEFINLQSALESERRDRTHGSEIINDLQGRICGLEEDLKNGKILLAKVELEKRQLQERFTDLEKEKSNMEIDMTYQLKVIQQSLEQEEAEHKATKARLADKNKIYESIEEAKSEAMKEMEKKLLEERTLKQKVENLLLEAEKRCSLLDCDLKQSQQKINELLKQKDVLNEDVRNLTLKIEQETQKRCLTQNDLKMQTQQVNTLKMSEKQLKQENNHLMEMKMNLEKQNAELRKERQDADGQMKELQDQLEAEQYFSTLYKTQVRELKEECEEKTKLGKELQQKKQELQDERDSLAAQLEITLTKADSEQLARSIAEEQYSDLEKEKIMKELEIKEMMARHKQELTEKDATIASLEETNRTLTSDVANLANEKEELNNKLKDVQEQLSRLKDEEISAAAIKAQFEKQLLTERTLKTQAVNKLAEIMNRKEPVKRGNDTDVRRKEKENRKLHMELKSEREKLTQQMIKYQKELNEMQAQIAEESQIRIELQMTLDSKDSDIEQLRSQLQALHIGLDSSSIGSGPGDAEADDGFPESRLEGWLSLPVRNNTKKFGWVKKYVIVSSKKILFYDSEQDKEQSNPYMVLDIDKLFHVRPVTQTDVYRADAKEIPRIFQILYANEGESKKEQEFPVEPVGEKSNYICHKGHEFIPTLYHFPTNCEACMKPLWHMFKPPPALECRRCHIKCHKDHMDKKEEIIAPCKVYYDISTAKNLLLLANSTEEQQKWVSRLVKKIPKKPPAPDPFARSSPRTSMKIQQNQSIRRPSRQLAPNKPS
In short: as §1

Chain of Rho kinase 1 (Q13464 whole entry): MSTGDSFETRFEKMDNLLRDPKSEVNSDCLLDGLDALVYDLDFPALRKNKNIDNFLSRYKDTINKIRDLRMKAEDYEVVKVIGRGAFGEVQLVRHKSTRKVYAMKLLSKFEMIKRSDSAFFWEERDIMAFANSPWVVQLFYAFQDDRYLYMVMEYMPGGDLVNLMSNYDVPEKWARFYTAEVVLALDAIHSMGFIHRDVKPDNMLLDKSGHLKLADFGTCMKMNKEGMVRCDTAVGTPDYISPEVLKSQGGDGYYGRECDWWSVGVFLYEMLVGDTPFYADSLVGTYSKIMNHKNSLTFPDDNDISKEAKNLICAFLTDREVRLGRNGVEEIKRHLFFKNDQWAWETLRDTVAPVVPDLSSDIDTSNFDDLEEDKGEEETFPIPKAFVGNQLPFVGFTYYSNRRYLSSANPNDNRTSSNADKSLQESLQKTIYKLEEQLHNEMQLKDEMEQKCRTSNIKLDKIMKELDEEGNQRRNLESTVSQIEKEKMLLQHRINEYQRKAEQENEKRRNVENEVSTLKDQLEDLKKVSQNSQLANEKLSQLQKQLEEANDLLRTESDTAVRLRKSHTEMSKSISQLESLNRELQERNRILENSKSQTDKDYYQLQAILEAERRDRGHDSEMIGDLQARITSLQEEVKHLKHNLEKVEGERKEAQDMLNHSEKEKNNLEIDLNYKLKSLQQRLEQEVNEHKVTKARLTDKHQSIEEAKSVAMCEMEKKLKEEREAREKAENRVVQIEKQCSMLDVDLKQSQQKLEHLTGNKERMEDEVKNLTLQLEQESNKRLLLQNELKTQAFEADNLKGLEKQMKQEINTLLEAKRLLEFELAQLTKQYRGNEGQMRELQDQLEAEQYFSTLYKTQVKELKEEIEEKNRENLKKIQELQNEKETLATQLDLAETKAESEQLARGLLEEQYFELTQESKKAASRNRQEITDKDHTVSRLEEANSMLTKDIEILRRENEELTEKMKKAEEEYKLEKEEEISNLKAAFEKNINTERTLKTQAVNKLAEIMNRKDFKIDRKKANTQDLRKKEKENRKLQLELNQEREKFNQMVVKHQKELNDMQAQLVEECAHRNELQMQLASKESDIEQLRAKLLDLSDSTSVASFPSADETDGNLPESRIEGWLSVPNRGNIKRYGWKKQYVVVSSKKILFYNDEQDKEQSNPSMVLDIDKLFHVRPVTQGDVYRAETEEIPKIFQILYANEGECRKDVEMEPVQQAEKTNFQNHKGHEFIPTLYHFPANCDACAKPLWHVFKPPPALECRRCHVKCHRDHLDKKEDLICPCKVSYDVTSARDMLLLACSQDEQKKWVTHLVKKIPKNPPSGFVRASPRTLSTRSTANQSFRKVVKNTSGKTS

SMILES | pKi (Rho kinase 1) | pKi (Rho kinase 2)
CC1=C(C(=O)Nc2ccc3cnccc3c2)C(c2ccc(C(F)(F)F)c(F)c2)n2nc(CN3CCC(N4CCCC4)CC3)cc2N1 (centres unmarked) [Example 105, 7-(3-fluoro-4-(trifluoromethyl)phenyl)-N-(isoquinolin-6-yl)-5-methyl-2-((4-(pyrrolidin-1-yl)piperidin-1-yl)methyl)-4,7-dihydropyrazolo[1,5-a]pyrimidine-6-carboxamide] | > 7.30 | > 7.30
CC1=C(C(=O)Nc2ccc3cnccc3c2)C(c2ccc(C(F)(F)F)c(F)c2)n2nc(C(=O)N(C)CCCN(C)C)cc2N1 (centres unmarked) [Example 89, N2-(3-(dimethylamino)propyl)-7-(3-fluoro-4-(trifluoromethyl)phenyl)-N6-(isoquinolin-6-yl)-N2,5-dimethyl-4,7-dihydropyrazolo[1,5-a]pyrimidine-2,6-dicarboxamide] | > 7.30 | > 7.30
CC1=C(C(=O)Nc2ccc3cnccc3c2)C(c2ccc(C(F)(F)F)c(F)c2)n2nc(N)cc2N1 (centres unmarked) [Example 130, 2-Amino-7-(3-fluoro-4-(trifluoromethyl)phenyl)-N-(isoquinolin-6-yl)-5-methyl-4,7-dihydropyrazolo[1,5-a]pyrimidine-6-carboxamide] | > 7.30 | > 7.30
CC1=C(C(=O)Nc2ccc3cnccc3n2)C(c2ccc(C(F)(F)F)c(F)c2)n2nc(CN(C)C)cc2N1 (centres unmarked) [Example 123, 2-((dimethylamino)methyl)-7-(3-fluoro-4-(trifluoromethyl)phenyl)-5-methyl-N-(1,6-naphthyridin-2-yl)-4,7-dihydropyrazolo[1,5-a]pyrimidine-6-carboxamide] | > 7.30 | > 7.30
CC1=C(C(=O)Nc2ccc3cnccc3c2)C(c2ccc(C(F)(F)F)c(F)c2)n2nc(C(=O)NCCN3CCOCC3)cc2N1 (centres unmarked) [Example 82, 7-(3-fluoro-4-(trifluoromethyl)phenyl)-N6-(isoquinolin-6-yl)-5-methyl-N2-(2-morpholinoethyl)-4,7-dihydropyrazolo[1,5-a]pyrimidine-2,6-dicarboxamide] | > 7.30 | > 7.30
CC1=C(C(=O)Nc2ccc3cnccc3c2)C(c2ccc(C)cc2)n2nc(CO)cc2N1 (centres unmarked) [Example 66, 2-(hydroxymethyl)-N-(isoquinolin-6-yl)-5-methyl-7-(p-tolyl)-4,7-dihydropyrazolo[1,5-a]pyrimidine-6-carboxamide] | > 7.30 | > 7.30
CCOC(=O)c1cc2n(n1)C(c1ccc(C)cc1)C(C(=O)Nc1ccc3[nH]ncc3c1)=C(C)N2 (centres unmarked) [Example 3, ethyl 6-((1H-indazol-5-yl)carbamoyl)-5-methyl-7-(p-tolyl)-4,7-dihydropyrazolo[1,5-a]pyrimidine-2-carboxylate] | > 7.30 | > 7.30
CC1=C(C(=O)Nc2ccc3cnccc3c2)C(c2ccc(C(F)(F)F)c(F)c2)n2nc(C(=O)N(C)C)cc2N1 (centres unmarked) [Example 126, 7-(3-fluoro-4-(trifluoromethyl)phenyl)-N6-(isoquinolin-6-yl)-N2,N2,5-trimethyl-4,7-dihydropyrazolo[1,5-a]pyrimidine-2,6-dicarboxamide] | > 7.30 | > 7.30
CC1=C(C(=O)Nc2ccc3cnccc3c2)C(c2ccc(C(F)(F)F)c(F)c2)n2nc(CO)cc2N1 (single isomer, unassigned) [Example 65A, 7-(3-fluoro-4-(trifluoromethyl)phenyl)-2-(hydroxymethyl)-N-(isoquinolin-6-yl)-5-methyl-4,7-dihydropyrazolo[1,5-a]pyrimidine-6-carboxamide] | > 7.30 | > 7.30
CC1=C(C(=O)Nc2ccc3[nH]ncc3c2)C(c2ccc(Cl)nc2)n2nc(CO)cc2N1 (centres unmarked) [Example 70, 7-(6-chloropyridin-3-yl)-2-(hydroxymethyl)-N-(1H-indazol-5-yl)-5-methyl-4,7-dihydropyrazolo[1,5-a]pyrimidine-6-carboxamide] | > 7.30 | > 7.30
CC(=O)N1CCN(Cc2cc3n(n2)C(c2ccc(C(F)(F)F)c(F)c2)C(C(=O)Nc2ccc4cnccc4c2)=C(C)N3)CC1 (centres unmarked) [Example 109, 2-((4-acetylpiperazin-1-yl)methyl)-7-(3-fluoro-4-(trifluoromethyl)phenyl)-N-(isoquinolin-6-yl)-5-methyl-4,7-dihydropyrazolo[1,5-a]pyrimidine-6-carboxamide] | > 7.30 | > 7.30
CC1=C(C(=O)Nc2ccc3cnccc3c2)C(c2ccc(C(F)(F)F)c(F)c2)n2nc(CNC(=O)CCN3CCCCC3)cc2N1 (single isomer, unassigned) [Example 138B, 7-(3-Fluoro-4-(trifluoromethyl)phenyl)-N-(isoquinolin-6-yl)-5-methyl-2-((3-(piperidin-1-yl)propanamido)methyl)-4,7-dihydropyrazolo[1,5-a]pyrimidine-6-carboxamide] | < 6.30 | < 6.30
CC1=C(C(=O)Nc2ccc3cnccc3c2)C(C2Cc3ccccc3C2)n2nc(CO)cc2N1 (single isomer, unassigned) [Example 60B, 7-(2,3-dihydro-1H-inden-2-yl)-2-(hydroxymethyl)-N-(isoquinolin-6-yl)-5-methyl-4,7-dihydropyrazolo[1,5-a]pyrimidine-6-carboxamide] | 6.30 to 7.30 | 6.30 to 7.30
CC1=C(C(=O)Nc2ccc3cnccc3c2)C(c2ccc(C(F)(F)F)c(F)c2)n2nc(CN3CCS(=O)(=O)CC3)cc2N1 (centres unmarked) [Example 108, 2-((1,1-Dioxidothiomorpholino)methyl)-7-(3-fluoro-4-(trifluoromethyl)phenyl)-N-(isoquinolin-6-yl)-5-methyl-4,7-dihydropyrazolo[1,5-a]pyrimidine-6-carboxamide] | > 7.30 | > 7.30
CC1=C(C(=O)Nc2ccc3cnccc3c2)C(c2ccc(C(F)(F)F)c(F)c2)n2nc(NC(=O)CN3CCCC3)cc2N1 (single isomer, unassigned) [132A] | > 7.30 | > 7.30
CC1=C(C(=O)Nc2ccc3[nH]ncc3c2)C(c2ccc(F)cc2)n2ncc(C(=O)N3CCN(C)CC3)c2N1 (centres unmarked) [Example 91, 7-(4-fluorophenyl)-N-(1H-indazol-5-yl)-5-methyl-3-(4-methylpiperazine-1-carbonyl)-4,7-dihydropyrazolo[1,5-a]pyrimidine-6-carboxamide] | < 6.30 | < 6.30
COC1CCN(Cc2cc3n(n2)C(c2ccc(C(F)(F)F)c(F)c2)C(C(=O)Nc2ccc4cnccc4c2)=C(C)N3)CC1 (centres unmarked) [Example 99, 7-(3-fluoro-4-(trifluoromethyl)phenyl)-N-(isoquinolin-6-yl)-2-((4-methoxypiperidin-1-yl)methyl)-5-methyl-4,7-dihydropyrazolo[1,5-a]pyrimidine-6-carboxamide] | > 7.30 | > 7.30
CC1=C(C(=O)Nc2ccc3[nH]ncc3c2)C(c2ccc(F)cc2)n2nc(Br)cc2N1 (centres unmarked) [Example 30, 2-bromo-7-(4-fluorophenyl)-N-(1H-indazol-5-yl)-5-methyl-4,7-dihydropyrazolo[1,5-a]pyrimidine-6-carboxamide] | > 7.30 | > 7.30
CC1=C(C(=O)Nc2ccc3cnccc3c2)C(c2ccc(C(F)(F)F)c(F)c2)n2nc(CN3CCCCC3)cc2N1 (single isomer, unassigned) [Example 97B, 7-(3-fluoro-4-(trifluoromethyl)phenyl)-N-(isoquinolin-6-yl)-5-methyl-2-(piperidin-1-ylmethyl)-4,7-dihydropyrazolo[1,5-a]pyrimidine-6-carboxamide] | > 7.30 | > 7.30
CC1=C(C(=O)Nc2ccc3cnccc3c2)C(c2ccc(C(F)(F)F)c(F)c2)n2nc(C(=O)NCCN3CCCCC3)cc2N1 (centres unmarked) [Example 77, 7-(3-fluoro-4-(trifluoromethyl)phenyl)-N6-(isoquinolin-6-yl)-5-methyl-N2-(2-(piperidin-1-yl)ethyl)-4,7-dihydropyrazolo[1,5-a]pyrimidine-2,6-dicarboxamide] | > 7.30 | > 7.30
COc1ccccc1-c1cc2n(n1)C(c1ccc(F)cc1)C(C(=O)Nc1ccc3[nH]ncc3c1)=C(C)N2 (centres unmarked) [Example 21, 7-(4-fluorophenyl)-N-(1H-indazol-5-yl)-2-(2-methoxyphenyl)-5-methyl-4,7-dihydropyrazolo[1,5-a]pyrimidine-6-carboxamide] | 6.30 to 7.30 | 6.30 to 7.30
CC1=C(C(=O)Nc2ccc3cnccc3c2)C(c2ccc(Br)cc2)n2nc(CO)cc2N1 (single isomer, unassigned) [Example 61B, 7-(4-bromophenyl)-2-(hydroxymethyl)-N-(isoquinolin-6-yl)-5-methyl-4,7-dihydropyrazolo[1,5-a]pyrimidine-6-carboxamide] | 6.30 to 7.30 | 6.30 to 7.30
CCOC(=O)c1cc2n(n1)C(c1ccc(O)cc1)C(C(=O)Nc1ccc3cnccc3c1)=C(C)N2 (centres unmarked) [Example 9, ethyl 7-(4-hydroxyphenyl)-6-(isoquinolin-6-ylcarbamoyl)-5-methyl-4,7-dihydropyrazolo[1,5-a]pyrimidine-2-carboxylate] | > 7.30 | > 7.30
COCc1cc2n(n1)C(c1ccc(C(F)(F)F)c(F)c1)C(C(=O)Nc1ccc3cnccc3c1)=C(C)N2 (centres unmarked) [Example 36, 7-(3-fluoro-4-(trifluoromethyl)phenyl)-N-(isoquinolin-6-yl)-2-(methoxymethyl)-5-methyl-4,7-dihydropyrazolo[1,5-a]pyrimidine-6-carboxamide] | > 7.30 | > 7.30
CCOC(=O)c1cc2n(n1)C(c1ccc(Cl)nc1)C(C(=O)Nc1ccc3[nH]ncc3c1)=C(C)N2 (centres unmarked) [Example 5, ethyl 6-((1H-indazol-5-yl)carbamoyl)-7-(6-chloropyridin-3-yl)-5-methyl-4,7-dihydropyrazolo[1,5-a]pyrimidine-2-carboxylate] | > 7.30 | > 7.30

— patent publication US10584128B2, “Bicyclic dihydropyrimidine-carboxamide derivatives as Rho-Kinase inhibitors” (CHIESI FARMACEUTICI S.p.A., priority 2016, dated 2020)
